Source: patent publication US9434727B2, “Substituted 4-phenylpiperidines, their preparation and use” (THE TRUSTEES OF COLUMBIA UNIVERSITY IN THE CITY OF NEW YORK, priority 2014, dated 2016)

Experiments:
RBP4-TTR interaction = RBP4-TTR interaction (Homo sapiens (Human), UniProt P02753); test: TR-FRET (HTRF) assay for retinol-induced RBP4-TTR interaction; format: biochemical; details: in the presence of 1 μM retinol; read-out: HTRF assay for antagonists of RBP4-TTR interaction: IC50
Description: TR-FRET assay for retinol-induced RBP4-TTR interaction Binding of a desired RBP4 antagonist displaces retinol and induces hindrance for RBP4-TTR interaction resulting in the decreased FRET signal (FIG. 7). Bacterially expressed MBP-RBP4 and untagged TTR were used in this assay. […] Following cell lysis, recombinant RBP4 was purified from the soluble fraction using the ACTA FPLC system (GE Healthcare) equipped with the 5-ml the MBP Trap HP column. Human untagged TTR was purchased from Calbiochem. Untagged TTR was labeled directly with Eu^3+ Cryptate-NHS using the HTRF Cryptate Labeling kit from CisBio following the manufacturer's recommendations. HTRF assay was performed in white low volume 384 well plates (Greiner-Bio) in a final assay volume of 16 μl per well. The reaction buffer contained 10 mM Tris-HCl pH 7.5, 1 mM DTT, 0.05% NP-40, 0.05% Prionex, 6% glycerol, and 400 mM KF. […] Titration of test compounds in this assay was conducted in the presence of 1 μM retinol. All reactions were assembled in the dark under dim red light and incubated overnight at +4° C. wrapped in aluminum foil. TR-FRET signal was measured in the SpectraMax M5e Multimode Plate Reader (Molecular Device). […] The TR-FRET signal was expressed as the ratio of fluorescence intensity: Flu665/Flu620×10,000.

RBP4 = RBP4 (Homo sapiens (Human), UniProt P02753); test: Scintillation proximity (SPA) RBP4 binding assay; details: 10 nM 3H-Retinol, 50 nM biotinylated RBP4
Protocol: Scintillation Proximity RBP4 Binding Assay
Untagged human RBP4 purified from urine of tubular proteinuria patients was purchased from Fitzgerald Industries International. It was biotinylated using the EZ-Link Sulfo-NHS-LC-Biotinylation kit from Pierce following the manufacturer's recommendations. Binding experiments were performed in 96-well plates (OptiPlate, PerkinElmer) in a final assay volume of 100 μl per well in SPA buffer (IX PBS, pH 7.4, 1 mM EDTA, 0.1% BSA, 0.5% CHAPS). The reaction mix contained 10 nM ^3H-Retinol (48.7 Ci/mmol; PerkinElmer), 0.3 mg/well Streptavidin-PVT beads, 50 nM biotinylated RBP4 and a test compound. Nonspecific binding was determined in the presence of 20 μM of unlabeled retinol. The reaction mix was assembled in the dark under dim red light. The plates were sealed with clear tape (TopSeal-A: 96-well microplate, PerkinElmer), wrapped in the aluminum foil, and allowed to equilibrate 6 hours at room temperature followed by overnight incubation at +4° C. Radiocounts were measured using a TopCount NXT counter (Packard Instrument Company).

SMILES: O=C(c1n[nH]c2c1CCN(C1COC1)C2)N1CCC(c2ccc(F)c(F)c2C(F)(F)F)CC1 [Compound 117, (4-(3,4-Difluoro-2-(trifluoromethyl)phenyl)piperidin-1-yl)(6-(oxetan-3-yl)-4,5,6,7-tetrahydro-1H-pyrazolo[3,4-c]pyridin-3-yl)methanone]
- IC50 (RBP4-TTR interaction): 0.0377 µM
- IC50 (RBP4): 0.00548 µM

SMILES: O=C(c1n[nH]c2c1CN(C(=O)N1CCCC1)C2)N1CCC(c2ccc(F)c(F)c2C(F)(F)F)CC1 [Compound 106, (4-(3,4-difluoro-2-(trifluoromethyl)phenyl)piperidin-1-yl)(5-(pyrrolidine-1-carbonyl)-1,4,5,6-tetrahydropyrrolo[3,4-c]pyrazol-3-yl)methanone]
- IC50 (RBP4-TTR interaction): 0.0298 µM
- IC50 (RBP4): 0.0204 µM

SMILES: CC(C)CC(=O)N1CCc2c(C(=O)N3CCC(c4ccc(F)c(F)c4C(F)(F)F)CC3)n[nH]c2C1 [Compound 123, 1-(3-(4-(3,4-Difluoro-2-(trifluoromethyl)phenyl)piperidine-1-carbonyl)-1,4,5,7-tetrahydro-6H-pyrazolo[3,4-c]pyridin-6-yl)-3-methylbutan-1-one]
- IC50 (RBP4-TTR interaction): 0.0522 µM
- IC50 (RBP4): 0.0151 µM

SMILES: O=C(c1n[nH]c2c1CN(CCC(F)(F)F)CC2)N1CCC(c2cc(F)cc(F)c2C(F)(F)F)CC1 [Compound 129, (4-(3,5-Difluoro-2-(trifluoromethyl)phenyl)piperidin-1-yl)(5-(3,3,3-trifluoropropyl)-4,5,6,7-tetrahydro-1H-pyrazolo[4,3-c]pyridin-3-yl)methanone]
- IC50 (RBP4-TTR interaction): 0.0195 µM
- IC50 (RBP4): 0.0138 µM

SMILES: N#Cc1ccc2nnc(C(=O)N3CCC(c4cc(F)cc(F)c4C(F)(F)F)CC3)n2c1 [Compound 132, 3-(4-(3,5-Difluoro-2-(trifluoromethyl)phenyl)piperidine-1-carbonyl)-[1,2,4]triazolo[4,3-a]pyridine-6-carbonitrile]
- IC50 (RBP4-TTR interaction): 0.0105 µM
- IC50 (RBP4): 0.00675 µM

SMILES: O=C(c1ccccc1)N1Cc2[nH]nc(C(=O)N3CCC(c4ccc(F)c(F)c4C(F)(F)F)CC3)c2C1 [Compound 102, (5-benzoyl-1,4,5,6-tetrahydropyrrolo[3,4-c]pyrazol-3-yl)(4-(3,4-difluoro-2-(trifluoromethyl)phenyl)piperidin-1-yl)methanone]
- IC50 (RBP4-TTR interaction): 0.0276 µM
- IC50 (RBP4): 0.0217 µM

SMILES: CC(=O)N1CCc2c(C(=O)N3CCC(c4cc(F)ccc4C(F)(F)F)CC3)n[nH]c2C1 [Compound 140, 1-(3-(4-(5-fluoro-2-(trifluoromethyl)phenyl)piperidine-1-carbonyl)-4,5-dihydro-1H-pyrazolo[3,4-c]pyridin-6(7H)-yl)ethanone]
- IC50 (RBP4-TTR interaction): 0.0219 µM
- IC50 (RBP4): 0.00928 µM

SMILES: O=C(c1n[nH]c2c1CN(CCC(F)(F)F)CC2)N1CCC(c2cccc(F)c2Cl)CC1 [Compound 167, (4-(2-Chloro-3-fluorophenyl)piperidin-1-yl)(5-(3,3,3-trifluoropropyl)-4,5,6,7-tetrahydro-1H-pyrazolo[4,3-c]pyridin-3-yl)methanone]
- IC50 (RBP4-TTR interaction): 0.0488 µM
- IC50 (RBP4): 0.0117 µM

SMILES: O=C(c1n[nH]c2c1CCN(CCC(F)(F)F)C2)N1CCC(c2cccc(F)c2C(F)(F)F)CC1 [Compound 76, (4-(3-Fluoro-2-(trifluoromethyl)phenyl)piperidin-1-yl)(6-(3,3,3-trifluoropropyl)-4,5,6,7-tetrahydro-1H-pyrazolo[3,4-c]pyridin-3-yl)methanone]
- IC50 (RBP4-TTR interaction): 0.0197 µM
- IC50 (RBP4): 0.0074 µM

SMILES: CNC(=O)N1CCc2[nH]nc(C(=O)N3CCC(c4cccc(F)c4C(F)(F)F)CC3)c2C1 [Compound 114, 3-(4-(3-Fluoro-2-(trifluoromethyl)phenyl)piperidine-1-carbonyl)-N-methyl-6,7-dihydro-1H-pyrazolo[4,3-c]pyridine-5(4)-carboxamide]
- IC50 (RBP4-TTR interaction): 0.0408 µM
- IC50 (RBP4): 0.0103 µM

SMILES: CCN1CCc2[nH]nc(C(=O)N3CCC(c4cccc(F)c4Cl)CC3)c2C1 [Compound 163, (4-(2-Chloro-3-fluorophenyl)piperidin-1-yl)(5-ethyl-4,5,6,7-tetrahydro-1H-pyrazolo[4,3-c]pyridin-3-yl)methanone]
- IC50 (RBP4-TTR interaction): 0.0553 µM
- IC50 (RBP4): 0.0153 µM

SMILES: N#CN1CCc2c(C(=O)N3CCC(c4cccc(F)c4C(F)(F)F)CC3)n[nH]c2C1 [Compound 78, 3-(4-(3-Fluoro-2-(trifluoromethyl)phenyl)piperidine-1-carbonyl)-4,5-dihydro-1H-pyrazolo[3,4-c]pyridine-6(7H)-carbonitrile]
- IC50 (RBP4): 0.0095 µM

SMILES: CC(=O)N1CCc2c(C(=O)N3CCC(c4cc(F)cc(F)c4C(F)(F)F)CC3)n[nH]c2C1 [Compound 131, 1-(3-(4-(3,5-Difluoro-2-(trifluoromethyl)phenyl)piperidine-1-carbonyl)-4,5-dihydro-1H-pyrazolo[3,4-c]pyridin-6(7H)-yl)ethanone]
- IC50 (RBP4-TTR interaction): 0.0109 µM
- IC50 (RBP4): 0.00636 µM

SMILES: COC(=O)N1CCc2c(C(=O)N3CCC(c4cc(F)cc(F)c4C(F)(F)F)CC3)n[nH]c2C1 [Compound 130, Methyl 3-(4-(3,5-difluoro-2-(trifluoromethyl)phenyl)piperidine-1-carbonyl)-1,4,5,7-tetrahydro-6H-pyrazolo[3,4-c]pyridine-6-carboxylate]
- IC50 (RBP4-TTR interaction): 0.0149 µM
- IC50 (RBP4): 0.0128 µM

SMILES: O=C(O)CN1CCc2c(C(=O)N3CCC(c4ccc(F)c(F)c4C(F)(F)F)CC3)n[nH]c2C1 [Compound 115, 2-(3-(4-(3,4-Difluoro-2-(trifluoromethyl)phenyl)piperidine-1-carbonyl)-1,4,5,7-tetrahydro-6H-pyrazolo[3,4-c]pyridin-6-yl)acetic acid]
- IC50 (RBP4-TTR interaction): 0.109 µM
- IC50 (RBP4): 0.0189 µM

SMILES: N#Cc1ccc2nnc(C(=O)N3CCC(c4cccc(Cl)c4C(F)(F)F)CC3)n2c1 [Compound 162, 3-(4-(3-Chloro-2-(trifluoromethyl)phenyl)piperidine-1-carbonyl)-[1,2,4]triazolo[4,3-a]pyridine-6-carbonitrile]
- IC50 (RBP4-TTR interaction): 0.0107 µM
- IC50 (RBP4): 0.00482 µM

SMILES: O=C(c1n[nH]c2c1CN(CC(F)(F)F)CC2)N1CCC(c2cccc(F)c2C(F)(F)F)CC1 [Compound 71, (4-(3-Fluoro-2-(trifluoromethyl)phenyl)piperidin-1-yl)(5-(2,2,2-trifluoroethyl)-4,5,6,7-tetrahydro-1H-pyrazolo[4,3-c]pyridin-3-yl)methanone]
- IC50 (RBP4-TTR interaction): 0.0526 µM
- IC50 (RBP4): 0.0171 µM

SMILES: CC(C)(C)CN1CCc2c(C(=O)N3CCC(c4ccc(F)c(F)c4C(F)(F)F)CC3)n[nH]c2C1 [Compound 126, (4-(3,4-Difluoro-2(trifluoromethyl)phenyl)piperidin-1-yl)(6-neopentyl-4,5,6,7-tetrahydro-1H-pyrazolo[3,4-c]pyridin-3-yl)methanone]
- IC50 (RBP4-TTR interaction): 0.17 µM
- IC50 (RBP4): 0.017 µM

SMILES: O=C(c1n[nH]c2c1CN(C(=O)N1CCCCC1)C2)N1CCC(c2ccc(F)c(F)c2C(F)(F)F)CC1 [Compound 128, (4-(3,4-Difluoro-2-(trifluoromethyl)phenyl)piperidin-1-yl)(5-(piperidine-1-carbonyl)-1,4,5,6 tetrahydropyrrolo[3,4-c]pyrazol-3-yl)methanone]
- IC50 (RBP4-TTR interaction): 0.0324 µM

SMILES: N#CN1CCc2c(C(=O)N3CCC(c4ccc(F)c(F)c4C(F)(F)F)CC3)n[nH]c2C1 [Compound 120, 3-(4-(3,4-Difluoro-2-(trifluoromethyl)phenyl)piperidine-1-carbonyl)-1,4,5,7-tetrahydro-6H-pyrazolo[3,4-c]pyridine-6-carbonitrile]
- IC50 (RBP4): 0.00345 µM

SMILES: N#CN1CCc2[nH]nc(C(=O)N3CCC(c4cccc(F)c4C(F)(F)F)CC3)c2C1 [Compound 70, 3-(4-(3-Fluoro-2-(trifluoromethyl)phenyl)piperidine-1-carbonyl)-6,7-dihydro-1H-pyrazolo[4,3-c]pyridine-5(4H)-carbonitrile]
- IC50 (RBP4-TTR interaction): 0.0375 µM
